The source of these data is patent publication US8691815B2, “Substituted oxindole derivatives, drugs containing said derivatives and the use thereof” (AbbVie Deutschland GmbH & Co. KG, priority 2005, dated 2014).

Where a name gives a salt, the structure may show the parent alone. Where only a bound is given, the exact number is not on record here.

In the assay the target is T1, human vasopressin V1b receptor (Homo sapiens, UniProt P47901).
T1 construct: expressed in transfected cells; host or cells: CHO-K1 (cell line hV1b-3H2_CHO), membrane preparation
T1 sequence (P47901 1-424): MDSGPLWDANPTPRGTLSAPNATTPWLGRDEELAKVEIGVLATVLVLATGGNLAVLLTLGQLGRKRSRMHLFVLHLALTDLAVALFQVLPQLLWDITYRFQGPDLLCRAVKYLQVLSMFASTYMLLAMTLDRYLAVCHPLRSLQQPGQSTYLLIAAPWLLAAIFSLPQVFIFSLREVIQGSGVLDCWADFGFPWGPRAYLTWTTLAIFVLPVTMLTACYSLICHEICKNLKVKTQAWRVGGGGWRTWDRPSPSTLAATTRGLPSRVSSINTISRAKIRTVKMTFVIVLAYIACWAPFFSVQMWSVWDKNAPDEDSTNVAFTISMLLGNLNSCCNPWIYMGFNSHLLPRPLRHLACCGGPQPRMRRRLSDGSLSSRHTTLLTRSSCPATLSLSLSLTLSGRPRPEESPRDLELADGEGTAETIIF
Description: Vasopressin V1b receptor binding assay. Conditions: membranes from CHO-K1 cells with stably expressed human V1b receptors, displacement of 1.5 nM 3H-AVP. The protocol: Vasopressin V1b Receptor Binding Assay:
The test substances were dissolved in a concentration of 10^−2 M in DMSO (dimethyl sulfoxide) and further diluted to 5×10^−4 M to 5×10^−9 M in DMSO. This series of DMSO predilutions was diluted 1:10 with assay buffer. The substance concentration was again diluted 1:5 in the assay mixture (2% DMSO in the mixture).
The membrane pellet was again homogenized and centrifuged as described and then taken up in 50 mM Tris-HCl, pH 7.4, homogenized and stored in aliquots frozen in liquid nitrogen at −190° C.
The incubation buffer was: 50 mM Tris, 10 mM MgCl2, 0.1% BSA, pH 7.4.
The nonspecific binding was determined with 1 uM AVP (Bachem # H1780). All determinations were carried out as triplicate determinations. After incubation (60 minutes at room temperature), the free radioligand was removed by vacuum filtration (Skatron cell harvester 7000) through Whatman GF/B glass fiber filter mats, and the filters were transferred into scintillation vials. The liquid scintillation measurement took place in a Tricarb model 2000 or 2200CA instrument (Packard). Conversion of the measured cpm into dpm was carried out with the aid of a standard quench series.
The binding parameters were calculated by nonlinear regression in SAS.

The Ki is a measure of affinity in units of concentration, obtained from inhibition or displacement. For `COCCN(C)Cc1ccc(OC)c(C2(N3CCC[C@H]3C(=O)N(C)C)C(=O)N(S(=O)(=O)c3ccc(OC)cc3)c3ccc(Cl)cc32)c1` (stereo partly drawn) [Example 32, (S)-1-[5-Chloro-1-(4-methoxybenzenesulfonyl)-3-(2-methoxy-5-{[(2-methoxyethyl)-methylamino]methyl}phenyl)-2-oxo-2,3-dihydro-1H-indol-3-yl]-pyrrolidine-2-dimethyl-carboxamide, trifluoroacetic acid salt], the Ki was under 1 nM.

As for `COCCN(C)Cc1ccc(OC)c(C2(N3CCC[C@H]3C(=O)N(C)C)C(=O)N(S(=O)(=O)c3ccc(OC)cc3OC)c3ccc(Cl)cc32)c1` (stereo partly drawn) [Example 33, (S)-1-[5-Chloro-1-(2,4-dimethoxybenzenesulfonyl)-3-(2-methoxy-5-{[(2-methoxy-ethyl)methylamino]methyl}phenyl)-2-oxo-2,3-dihydro-1H-indol-3-yl]pyrrolidine-2-dimethylcarboxamide, trifluoroacetic acid salt], the Ki is under 1 nM. The value for `COc1ccc(S(=O)(=O)N2C(=O)C(c3ccc(CN4CCN(C)CC4)cc3OC)(N3CCC[C@H]3C(=O)N(C)C)c3cc(Cl)ccc32)cc1` (stereo partly drawn) [Example 69, (S)-1-{5-Chloro-1-(4-methoxybenzenesulfonyl)-3-[2-methoxy-4-(4-methylpiperazin-1-ylmethyl)phenyl]-2-oxo-2,3-dihydro-1H-indol-3-yl}pyrrolidine-2-dimethylcarboxamide, trifluoroacetic acid salt] was under 1 nM; that for `COc1ccc(S(=O)(=O)N2C(=O)C(c3ccc(CN(C)C)cc3OC)(N3CCC[C@H]3C(=O)N(C)C)c3cc(Cl)ccc32)cc1` (stereo partly drawn) [Example 70, (S)-1-[5-Chloro-3-(4-dimethylaminomethyl-2-methoxyphenyl)-1-(4-methoxy-benzenesulfonyl)-2-oxo-2,3-dihydro-1H-indol-3-yl]pyrrolidine-2-dimethylcarboxamide, trifluoroacetic acid salt] was under 1 nM; that for `COc1ccc(S(=O)(=O)N2C(=O)C(c3ccc(CN4CCOCC4)cc3OC)(N3CCC[C@H]3C(=O)N(C)C)c3cc(Cl)ccc32)cc1` (stereo partly drawn) [Example 71, (S)-1-[5-Chloro-1-(4-methoxybenzenesulfonyl)-3-(2-methoxy-4-morpholin-4-yl-methylphenyl)-2-oxo-2,3-dihydro-1H-indol-3-yl]pyrrolidine-2-dimethylcarboxamide, trifluoroacetic acid salt] was under 1 nM. As for `COc1cc(CN(C)C)ccc1C1(N2CCC[C@H]2C(=O)N(C)C)C(=O)N(S(=O)(=O)c2ccc(C#N)cc2)c2ccc(Cl)cc21` (stereo partly drawn) [Example 72, (S)-1-[5-Chloro-1-(4-cyanobenzenesulfonyl)-3-(4-dimethylaminomethyl-2-methoxy-phenyl)-2-oxo-2,3-dihydro-1H-indol-3-yl]pyrrolidine-2-dimethylcarboxamide, trifluoroacetic acid salt], the inhibitory constant (Ki) fell in the range of 1 to 10 nM.

Turning to `COc1cc(CN(C)C)ccc1C1(N2CCC[C@H]2C(=O)N(C)C)C(=O)N(S(=O)(=O)c2ccc(F)cc2)c2ccc(Cl)cc21` (stereo partly drawn) [Example 73, (S)-1-[5-Chloro-3-(4-dimethylaminomethyl-2-methoxyphenyl)-1-(4-fluorobenzene-sulfonyl)-2-oxo-2,3-dihydro-1H-indol-3-yl]pyrrolidine-2-dimethylcarboxamide, trifluoroacetic acid salt], the Ki was in the range of 1 to 10 nM. Molecule `COc1cc(CN2CCN(C)CC2)ccc1C1(N2CCC[C@H]2C(=O)N(C)C)C(=O)N(S(=O)(=O)c2ccc(F)cc2)c2ccc(Cl)cc21` (stereo partly drawn) [Example 74, (S)-1-{5-Chloro-1-(4-fluorobenzenesulfonyl)-3-[2-methoxy-4-(4-methylpiperazin-1-yl-methyl)phenyl]-2-oxo-2,3-dihydro-1H-indol-3-yl}pyrrolidine-2-dimethylcarboxamide, trifluoroacetic acid salt] yielded a Ki of under 1 nM.
